Assays:
AChE = test: Plasma cholinesterase activities in monkeys (Ellman assay, acetylthiocholine hydrolysis); assay type: in vivo, Cynomolgus monkey
Procedure: In the 12 hr following the second day administration of hEN101, monkey plasma samples were collected and stored. Plasma cholinesterase activities were measured by spectrophotometry assessing the rate of hydrolysis of acetylthiocholine (measured by the Ellman assay, which quantifies the hydrolysis of acetylthiocholine) [Ellman, G. L., et al. (1961). Biochem. Pharmacol. 7, 88-95], in the absence or presence of iso-OMPA (a selective butyrylcholinesterase, BChE, inhibitor). […] When measured in the presence of 1×10^−5M iso-OMPA, AChE activity increased within the 5 hr post-injection.

AChE-R mRNA = test: In situ hybridization of AChE-R mRNA in monkey spinal cord neurons; assay type: in vivo, Cynomolgus monkey
Procedure: (§1) In situ hybridization: Tissues were fixed in 4% paraformaldehyde and cut into 7 μm paraffin embedded sections. Spinal cord sections were deparaffinized, rehydrated using serial ethanol dilutions and permeabilized with proteinase K (10 μg/ml at room temp.). Slides were exposed to 5′ biotinylated, fully 2′-oxymethylated AChE-R or AChE-S-specific 50-mer cRNA probes complementary to human ACHE pseudo-intron 4 or exon 6, respectively [Grisaru et al. (2001) id ibid.]. Hybridization was performed overnight at 52° C. in hybridization mixture containing 10 μg/ml probe, 50 μg/ml yeast tRNA, 50 μg/ml heparin and 50% formamide in 375 mM Na chloride, 37.5 mM Na citrate, pH 4.5. For monkey sections, the probe was constructed according to the human AChE-R sequence; for rat sections, according to the mouse sequence. Slides were washed to remove non-hybridized probe, blocked with 1% skim milk containing 0.01% Tween-20 and 2 mM levamisole, an alkaline phosphatase inhibitor used to suppress non-specific staining and incubate with streptavidin-alkaline phosphatase (Amersham Pharmacia). Fast Red™ substrate (Roche Diagnostics) was used for detection. DAPI staining (Sigma Chemical Co., St. Louis, Mo., USA) served to visualize nuclei. Microscope images were analyzed with Image Pro Plus 4.0 (Media Cybernetics) software.
This experiment was conducted with six (3 males and 3 females) purpose-bred 15 month-old (young adult) Cynomolgus monkeys, divided in three groups (1, 2 and 3) of one male and one female each. Groups 1 and 2 received hEN101 daily by o.g. for a period of 7 days, at a concentration of 0.15 and 0.50 μg/g/day, respectively. Group 3 received daily i.v. injections of hEN101 for a period of 7 days at a dosage of 0.50 μg/g/day.
Paraffin-embedded 7 μm spinal cord sections were examined by in situ hybridization for the levels of AChE-R and AChE-S mRNA.
AChE-R-positive sections from monkey spinal cords were analyzed for the relation between cell body diameter and percentage of AChE-R positive cells (FIG. 15). Cells were divided into three categories according to their body diameter, and the percentage of AChE-R-positive cells from each category was evaluated. […] Either i.v. or p.o. administration of the higher EN101 concentration (500 μg/kg/day) reduced the percentage of AChE-R-positive neurons, compared to the lower concentration (p<0.05. Student's t test). […] We have yet to discover the functional correlate of cell size that determines the efficacy of antisense suppression of AChE-R expression.

healthy rats = test: Electromyography: CMAP ratio in naive (healthy) rats; assay type: in vivo, rat; conditions: for CMAP ratio (5th vs. 1st amplitude): naive rats, 50 μg/Kg, average ± SEM
Procedure: Electromyography: Rats were anesthetized by i.p. injection of […] pentobarbital, immobilized, and subjected to repetitive sciatic nerve stimulation, using a pair of concentric needle electrodes at 3 Hz. Baseline compound muscle action potential (CMAP) was recorded by a concentric needle electrode placed in the gastrocnemius muscle, following a train of repetitive nerve stimulations at supramaximal intensity. Decrease (percent) in the amplitude of the fifth vs. the first muscle action potential was determined in two sets of repetitive stimulations for each animal. A reduction of 10% or more was considered indicative of neuromuscular transmission dysfunction.
Drug administration: Intravenous injections and blood sampling for anti-AChR antibodies testing were via the right jugular vein under anesthesia. For oral administration, a special needle for oral gavage feeding was used, which is curved with a ball end (Stoelting, Wood Dale Ill.). Mestinon® was administered in a dose of 1 mg/kg/day, and purchased from Hoffmann La-Roche. Basel, Switzerland.

AChE-S mRNA = test: In situ hybridization of AChE-S mRNA in rat muscle; assay type: in vivo; conditions: 24 h after single i.v. injection
Procedure: as §1, with “software. […]” for “software.”

AChE-R = test: Immunoblot densitometry of serum AChE-R in EAMG rats; assay type: in vivo, rat; conditions: 24 h after single i.v. injection of 250 μg/Kg
Procedure: Serum analyses: Blood samples drawn from EAMG rats and MG patients were subjected to non-denaturing gel electrophoresis as described [Kaufer et al. (1998) id ibid], as well as to catalytic activity measurements of AChE [Shapira et al. (2000) id ibid]. Iso-OMPA (tetraisopropylpyrophosphoramide, […]), was used to block butyrylcholinesterase activity in the serum samples. For activity staining on polyacrylamide gels [Kaufer et al. (1998) id ibid] we used 5-10−6 M iso-OMPA.
To evaluate the physiological outcome of this suppression, compound muscle action potentials (CMAPs) from the gastrocnemius muscle were recorded. […] The baseline decline, the percent difference in the heights of the fifth and the first evoked potentials, ranged from 10% to 36% (mean±SEM=13.0±2.5%, FIG. 9B, inset) as compared to 4.0±0.9% among healthy rats. The standard therapy for MG patients is administration of anti-cholinesterases, which elevate ACh levels to a threshold that enables receptor activation. Accordingly, neostigmine bromide (Prostigmine™, 75 μg/kg) was administered via i.p. This rapidly and effectively corrected the CMAP decline in EAMG rats, from 87.6% of the first evoked potential in untreated animals to […] of this level (i.e. 107.4%) of the first evoked potential). […]

Row | Substance | Total plasma cholinesterase activity (largely serum BChE) (AChE; 12 hr following second day administration, without iso-OMPA) | Post-injection increase of plasma AChE activity (AChE; in presence of 1×10^−5M iso-OMPA, 500 μg/kg vs 150 μg/kg, more effective i.v.) | Percent of small AChE-R-positive cells (<70 μm diameter) vs naive monkeys (AChE-R mRNA; 150 μg/kg/day) | Effect on AChE-R labeling of larger neurons (>70 μm) (AChE-R mRNA; 150-500 μg/kg/day) | AChE-R mRNA in spinal cord (AChE-R mRNA; increasing daily dose from 0.15 (oral) to 0.50 (oral or i.v.) μg/g/day, i.v. more effective) | Percentage of labeled small (23 to 40 μm) and medium-sized (40 to 70 μm) neurons (AChE-R mRNA; lower to higher oral dose (150 to 500 μg/kg/day), even further with i.v.) | Effect on CMAP in healthy animals (healthy rats; i.v., doses 10-500 μg/Kg) | CMAP ratio (5th vs. 1st amplitude) (healthy rats; intravenous, 0 h) | CMAP ratio (5th vs. 1st amplitude) (healthy rats; intravenous, 5 h) | CMAP ratio (5th vs. 1st amplitude) (healthy rats; intravenous, 24 h) | CMAP ratio (5th vs. 1st amplitude) (healthy rats; oral, 0 h) | CMAP ratio (5th vs. 1st amplitude) (healthy rats; oral, 1 h) | CMAP ratio (5th vs. 1st amplitude) (healthy rats; oral, 5 h) | CMAP ratio (5th vs. 1st amplitude) (healthy rats; oral, 24 h) | AChE-S mRNA labeling in muscle (AChE-S mRNA) | Serum AChE-R level (AChE-R)
1 | 5′-CTGCCACGTTCTCCTGCACC-3′ [hEN101] | generally unchanged | effectively suppressed or attenuated | caused an increase | not discernable effect | significant reduction | decreased significantly |  |  |  |  |  |  |  |  |  | 
2 | 5′-CTGCGATATTTTCTTGTACC-3′ (chemistry not given here) [rEN101] |  |  |  |  |  |  | did not affect CMAP | 1.00 ± 0.0 | 1.00 ± 0.01 | 1.02 ± 0.01 | 1.01 ± 0.01 | 1.0 ± 0.02 | 1.03 ± 0.02 | 1.01 ± 0.00 | only nominally affected | reducing its serum level
